Measured values from US6613719B1, “3-(4,5-dihydroisoxazol-3-yl)-substituted benzoylpyrazoles” (BASF Aktiengesellschaft, priority 1999, dated 2003).

Q: With Cc1c(C(=O)c2cnn(C)c2O)ccc(S(C)(=O)=O)c1C1=NOC(CCl)C1 (stereo not shown) [Compound 2.1, 4-[2-Methyl-3-(5-chloromethyl-4,5-dihydroisoxazol-3-yl)-4-methyl-sulfonylbenzoyl]-5-hydroxy-1-methyl-1H-pyrazole] as the molecule, how does the melting point read?
A: 76 to 78 °C
